In publication PMC8954547, “Nonpeptidic Z360-Analogs Tagged with Trivalent Radiometals as Anti-CCK2R Cancer Theranostic Agents: A Preclinical Study” (Pharmaceutics, 2022):

What was measured:
[1] = system: HEK293-CCK2i4svR cells; experiment: Radioligand uptake and internalization in HEK293-CCK2i4svR cells; assay type: cell-based, human
Method: A day before the experiment, HEK293-CCK2i4svR cells were seeded in six-well plates. The next day, cells were rinsed with ice-cold internalization medium (IM: DMEM Glutamax-I, supplemented by 1% (v/v) FBS) and then the fresh medium was added (1.2 mL) at 37 °C. A further portion of IM (150 µL) was added in the upper well-row, and DG2 solution in IM (150 µL) was added in the lower row (to a final concentration of 1 μM; non-specific series). Each of the test radioligands, [^67Ga]Ga/[^111In]In/[^177Lu]Lu-GAS1/3 and [^67Ga]Ga/[^111In]In-GAS2, was finally added (250 fmol total conjugates in 150 μL 0.5% BSA-PBS) in all the wells and the plates were incubated at for 1 h at 37 °C in an Incubator-Orbital Shaker unit (MPM Instr. SrI, Bernareggio, MI, Italy); [^111In]In-GAS1/2/3 were incubated for 15 min, 30 min, 1 h and 2 h. At the predetermined time points, the plates were placed on ice, the medium was collected, and the plates were rinsed with 0.5% BSA-PBS (1 mL). Cells were subsequently treated with an acid-wash solution (2 × 600 µL; 50 mM glycine buffer pH 2.8, 0.1 M NaCl) and the fractions collected (membrane-bound). After briefly washing with 0.5% BSA-PBS (1 mL), the cells were lysed with 1 N NaOH (2 × 600 µL), and the fractions were collected (internalized). The radioactivity content of collected fractions was counted in the gamma counter, and the percentage of internalized and membrane-bound fractions per time point were calculated with Microsoft Excel. Specific internalized and membrane-bound counts were determined by subtracting the respective non-specific (in the presence of 1 μM DG2) from the respective total counts. Results represent specific internalized/membrane bound ± SD of total added radioactivity per well from three experiments performed in triplicate.

[2] = system: HEK293-CCK2i4svR and wtHEK293 xenografts; experiment: SPECT/CT of HEK293-CCK2i4svR and wtHEK293 xenografts; assay type: in vivo, mice; conditions: 4 h and 24 h pi
Method: For SPECT/CT imaging, six mice bearing twin HEK293-CCK2i4svR and wtHEK293 tumors were injected in the tail vein with a bolus containing [^111In]In-GAS1/2/3 (100 μL, 9–12 MBq associated with 3 nmol total injected analog in-vehicle: saline/EtOH 9/1 v/v). Mice were euthanized at 4 h and 24 h pi. Tomographic SPECT/CT imaging was performed with the y-CUBE/x-CUBE systems (Molecubes, Belgium). The SPECT system is based on monolithic NaI detectors attached to SiPMs, with a 0.6 mm intrinsic resolution. The CT system is based on a structured CMOS detector of CsI with pixels of 75 µm and operates between 35–80 kVp, 10–500 µA tube current, with a 33 µm fixed focal spot size. SPECT scans were acquired 4 h pi and 24 h pi, with a 40–50 min duration protocol based on the injected activity, and each SPECT scan was succeeded by a CT scan, following General-Purpose protocol under 50 kVp, for co-registration purposes. SPECT images were reconstructed using the MLEM reconstruction method with a 250 µm voxel size and 500 iterations. CT images were reconstructed using the ISRA reconstruction method with a 100 µm voxel size.
Images were exported and post-processed on VivoQuant software, version 4.0 (Invicro, Boston). A smoothing median filter (0.6 mm, spherical window) was applied to the images, and the bladder was removed for consistency purposes. Normalization of images was performed (i.e., all images having the same color scale range values) to achieve a direct visual comparison between the different groups.

[3] = system: SCID mice bearing twin HEK293-CCK2i4svR and wtHEK293 tumors; experiment: Biodistribution in SCID mice bearing twin HEK293-CCK2i4svR and wtHEK293 xenografts; assay type: in vivo
Summary of the method: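 Uptake is expressed as %IA/g (mean ± SD, n = 4) from gamma counting of blood, organs and tumours collected at set times: 1, 4 and 24 h pi for ^67Ga, 4 and 24 h for ^111In (±gelofusine), 4–96 h for ^177Lu. Radioligands were given iv at 7–40 pmol to SCID mice bearing twin CCK2i4svR-transfected and wild-type HEK293 xenografts.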

CC(C)(C)C(=O)CN1C(=O)[C@H](NC(=O)Nc2cccc(C(=O)NCCOCCOCCOCCNC(=O)[C@@H](CCC(=O)O)NC(=O)CCC(C(=O)O)N3CCN(CC(=O)[O-])CCN(CC(=O)[O-])CCN(CC(=O)[O-])CC3)c2)CN(C2CCCCC2)c2ccccc21.[111In+3] (stereo partly shown) [[^111In]In-GAS3]
Internalized to membrane-bound ratio [1]: 4.1
Internalized fraction ([1]; 1 h 37 °C, specific): 11.12 ± 0.79 % of total added activity
Cell uptake (internalized + membrane-bound) ([1]; 1 h 37 °C, specific, of total added activity): 13.81 ± 0.89%
SPECT/CT uptake in CCK2i4svR expressing tumors [2]: Intense uptake
SPECT/CT uptake in wtHEK293 tumors devoid of CCK2i4svR expression [2]: no uptake is evident
Biodistribution, Blood ([3]; 4 h pi): 2.42 ± 0.94 %IA/g
Biodistribution, CCK2i4svR(+) Tumor ([3]; 4 h pi): 19.83 ± 1.35 %IA/g
Biodistribution, CCK2i4svR(-) Tumor ([3]; 4 h pi): 0.85 ± 0.37 %IA/g
Biodistribution, Femur ([3]; 4 h pi): 0.60 ± 0.14 %IA/g
Biodistribution, Heart ([3]; 4 h pi): 0.81 ± 0.28 %IA/g
Biodistribution, Intestines ([3]; 4 h pi): 1.66 ± 0.33 %IA/g
Biodistribution, Kidneys ([3]; 4 h pi): 9.32 ± 0.68 %IA/g
Biodistribution, Liver ([3]; 4 h pi): 2.78 ± 0.27 %IA/g
Biodistribution, Lungs ([3]; 4 h pi): 1.36 ± 0.37 %IA/g
Biodistribution, Muscle ([3]; 4 h pi): 0.31 ± 0.13 %IA/g
Biodistribution, Pancreas ([3]; 4 h pi): 0.86 ± 0.23 %IA/g
Biodistribution, Spleen ([3]; 4 h pi): 0.69 ± 0.12 %IA/g
Biodistribution, Stomach ([3]; 4 h pi): 0.91 ± 0.39 %IA/g
Biodistribution, Blood ([3]; 24 h pi): 0.08 ± 0.01 %IA/g
Biodistribution, CCK2i4svR(+) Tumor ([3]; 24 h pi): 11.53 ± 1.93 %IA/g
Biodistribution, CCK2i4svR(-) Tumor ([3]; 24 h pi): 0.40 ± 0.21 %IA/g
Biodistribution, Femur ([3]; 24 h pi): 0.27 ± 0.09 %IA/g
Biodistribution, Heart ([3]; 24 h pi): 0.16 ± 0.02 %IA/g
Biodistribution, Intestines ([3]; 24 h pi): 0.48 ± 0.14 %IA/g
Biodistribution, Kidneys ([3]; 24 h pi): 4.15 ± 1.06 %IA/g
Biodistribution, Liver ([3]; 24 h pi): 1.07 ± 0.26 %IA/g
Biodistribution, Muscle ([3]; 24 h pi): 0.08 ± 0.01 %IA/g
Biodistribution, Pancreas ([3]; 24 h pi): 0.17 ± 0.04 %IA/g
Biodistribution, Spleen ([3]; 24 h pi): 0.43 ± 0.09 %IA/g
Biodistribution, Stomach ([3]; 24 h pi): 0.35 ± 0.21 %IA/g
Background clearance / excretion route ([3]; mouse, in vivo): predominantly cleared via the kidneys
